The text below walks through data of ChEMBL document CHEMBL1177694, “Multivalent catanionic GalCer analogs derived from first generation dendrimeric phosphonic acids” (Bioorg Med Chem, 2010).

For data set [1], the system named is Human immunodeficiency virus 1. The experiment in a line: Antiviral activity against HIV1 LAI infected in human CEM-SS cells assessed as inhibition of viral replication after 5 days by MTT assay. The data set is classed as functional, organism-based. To be noted: Human immunodeficiency virus 1, LAI, 120 h. (Formazan colour is commonly taken as a measure of viable cells.)

The nature of data set [2]: Cytotoxicity against human CEM-SS cells after 5 days by MTT assay. The data set is classed as cell-based.
The nature of data set [3]: Therapeutic index, ratio of CC50 for human CEM-SS cells to IC50 for HIV1 LAI infected in human CEM-SS cells. The format is cell-based. To be noted: CEM-SS cells (uninfected and infected with HIV1 LAI), read-out: Ratio CC50/IC50.

The structures appear in SMILES notation.

In general, IC50 refers to the concentration at which inhibition is half-maximal. The term CC50 denotes the concentration at which the toxic effect on the cells reaches its halfway point. Low values mean harm at low concentration, high ones better tolerance by the cells. Turning to `CCCCCCCCCC(C(=O)NCCc1ccc(OP(=S)(Oc2ccc(CCNC(=O)C(CCCCCCCCC)P(=O)(O)O)cc2)N(C)/N=C/c2ccc(OP3(Oc4ccc(/C=N/N(C)P(=S)(Oc5ccc(CCNC(=O)C(CCCCCCCCC)P(=O)(O)O)cc5)Oc5ccc(CCNC(=O)C(CCCCCCCCC)P(=O)(O)O)cc5)cc4)=NP(Oc4ccc(/C=N/N(C)P(=S)(Oc5ccc(CCNC(=O)C(CCCCCCCCC)P(=O)(O)O)cc5)Oc5ccc(CCNC(=O)C(CCCCCCCCC)P(=O)(O)O)cc5)cc4)(Oc4ccc(/C=N/N(C)P(=S)(Oc5ccc(CCNC(=O)C(CCCCCCCCC)P(=O)(O)O)cc5)Oc5ccc(CCNC(=O)C(CCCCCCCCC)P(=O)(O)O)cc5)cc4)=NP(Oc4ccc(/C=N/N(C)P(=S)(Oc5ccc(CCNC(=O)C(CCCCCCCCC)P(=O)(O)O)cc5)Oc5ccc(CCNC(=O)C(CCCCCCCCC)P(=O)(O)O)cc5)cc4)(Oc4ccc(/C=N/N(C)P(=S)(Oc5ccc(CCNC(=O)C(CCCCCCCCC)P(=O)(O)O)cc5)Oc5ccc(CCNC(=O)C(CCCCCCCCC)P(=O)(O)O)cc5)cc4)=N3)cc2)cc1)P(=O)(O)O.CCCCCCCCCCCCCCCCNOC(CO)C(O)C(OC1OC(CO)C(O)C(O)C1O)C(O)CO.CCCCCCCCCCCCCCCCNOC(CO)C(O)C(OC1OC(CO)C(O)C(O)C1O)C(O)CO.CCCCCCCCCCCCCCCCNOC(CO)C(O)C(OC1OC(CO)C(O)C(O)C1O)C(O)CO.CCCCCCCCCCCCCCCCNOC(CO)C(O)C(OC1OC(CO)C(O)C(O)C1O)C(O)CO.CCCCCCCCCCCCCCCCNOC(CO)C(O)C(OC1OC(CO)C(O)C(O)C1O)C(O)CO.CCCCCCCCCCCCCCCCNOC(CO)C(O)C(OC1OC(CO)C(O)C(O)C1O)C(O)CO` (centres undefined), in data set [1], the IC50 is 0.31 µM. For the same compound, the CC50 at 120 h in data set [2] was found to be 6.1 µM. Moreover, the selectivity ratio in data set [3] turned out to be 19.7.
With `CCCCCCCCCCCCCCCCNOC(CO)C(O)C(OC1OC(CO)C(O)C(O)C1O)C(O)CO.CCCCCCCCCCCCCCCCNOC(CO)C(O)C(OC1OC(CO)C(O)C(O)C1O)C(O)CO.CCCCCCCCCCCCCCCCNOC(CO)C(O)C(OC1OC(CO)C(O)C(O)C1O)C(O)CO.CCCCCCCCCCCCCCCCNOC(CO)C(O)C(OC1OC(CO)C(O)C(O)C1O)C(O)CO.CCCCCCCCCCCCCCCCNOC(CO)C(O)C(OC1OC(CO)C(O)C(O)C1O)C(O)CO.CCCCCCCCCCCCCCCCNOC(CO)C(O)C(OC1OC(CO)C(O)C(O)C1O)C(O)CO.CN(/N=C/c1ccc(OP2(Oc3ccc(/C=N/N(C)P(=S)(Oc4ccc(/C=C/P(=O)(O)O)cc4)Oc4ccc(/C=C/P(=O)(O)O)cc4)cc3)=NP(Oc3ccc(/C=N/N(C)P(=S)(Oc4ccc(/C=C/P(=O)(O)O)cc4)Oc4ccc(/C=C/P(=O)(O)O)cc4)cc3)(Oc3ccc(/C=N/N(C)P(=S)(Oc4ccc(/C=C/P(=O)(O)O)cc4)Oc4ccc(/C=C/P(=O)(O)O)cc4)cc3)=NP(Oc3ccc(/C=N/N(C)P(=S)(Oc4ccc(/C=C/P(=O)(O)O)cc4)Oc4ccc(/C=C/P(=O)(O)O)cc4)cc3)(Oc3ccc(/C=N/N(C)P(=S)(Oc4ccc(/C=C/P(=O)(O)O)cc4)Oc4ccc(/C=C/P(=O)(O)O)cc4)cc3)=N2)cc1)P(=S)(Oc1ccc(/C=C\P(=O)(O)O)cc1)Oc1ccc(/C=C/P(=O)(O)O)cc1` (centres undefined), in data set [1], the IC50 worked out at 0.25 µM. In data set [2], half-maximal cytotoxicity (CC50 at 120 h) was put at 1.6 µM. Also, in data set [3], the selectivity ratio came out at 6.4.
For `CCCCCCCCCCCCCCCCNOC(CO)C(O)C(OC1OC(CO)C(O)C(O)C1O)C(O)CO.CCCCCCCCCCCCCCCCNOC(CO)C(O)C(OC1OC(CO)C(O)C(O)C1O)C(O)CO.CCCCCCCCCCCCCCCCNOC(CO)C(O)C(OC1OC(CO)C(O)C(O)C1O)C(O)CO.CCCCCCCCCCCCCCCCNOC(CO)C(O)C(OC1OC(CO)C(O)C(O)C1O)C(O)CO.CCCCCCCCCCCCCCCCNOC(CO)C(O)C(OC1OC(CO)C(O)C(O)C1O)C(O)CO.CCCCCCCCCCCCCCCCNOC(CO)C(O)C(OC1OC(CO)C(O)C(O)C1O)C(O)CO.CN(/N=C/c1ccc(OP2(Oc3ccc(/C=N/N(C)P(=S)(Oc4ccc(C(O)P(=O)(O)O)cc4)Oc4ccc(C(O)P(=O)(O)O)cc4)cc3)=NP(Oc3ccc(/C=N/N(C)P(=S)(Oc4ccc(C(O)P(=O)(O)O)cc4)Oc4ccc(C(O)P(=O)(O)O)cc4)cc3)(Oc3ccc(/C=N/N(C)P(=S)(Oc4ccc(C(O)P(=O)(O)O)cc4)Oc4ccc(C(O)P(=O)(O)O)cc4)cc3)=NP(Oc3ccc(/C=N/N(C)P(=S)(Oc4ccc(C(O)P(=O)(O)O)cc4)Oc4ccc(C(O)P(=O)(O)O)cc4)cc3)(Oc3ccc(/C=N/N(C)P(=S)(Oc4ccc(C(O)P(=O)(O)O)cc4)Oc4ccc(C(O)P(=O)(O)O)cc4)cc3)=N2)cc1)P(=S)(Oc1ccc(C(O)P(=O)(O)O)cc1)Oc1ccc(C(O)P(=O)(O)O)cc1` (centres undefined), in that order: 0.21 µM, 1.2 µM and 4.
